Active and inactive are the calls of the source. The rule behind the calls is not given here.
Key:
[1] = molecular target: Histone deacetylase 3 (Homo sapiens, UniProt O15379); assay: Inhibition of recombinant human HDAC3 expressed in baculovirus infected High5 insect cells using Ac-Lys-Tyr-Lys(epsilon-acetyl)-AMC as substrate after 24 hrs by fluorescence assay
[2] = molecular target: T1, Protein deacetylase HDAC6 (Homo sapiens, UniProt Q9UBN7); assay: Inhibition of recombinant human HDAC6 expressed in baculovirus infected High5 insect cells using Boc-Lys (epsilon-acetyl)-AMC as substrate after 3 hrs by fluorescence assay
T1 sequence (Q9UBN7 whole entry): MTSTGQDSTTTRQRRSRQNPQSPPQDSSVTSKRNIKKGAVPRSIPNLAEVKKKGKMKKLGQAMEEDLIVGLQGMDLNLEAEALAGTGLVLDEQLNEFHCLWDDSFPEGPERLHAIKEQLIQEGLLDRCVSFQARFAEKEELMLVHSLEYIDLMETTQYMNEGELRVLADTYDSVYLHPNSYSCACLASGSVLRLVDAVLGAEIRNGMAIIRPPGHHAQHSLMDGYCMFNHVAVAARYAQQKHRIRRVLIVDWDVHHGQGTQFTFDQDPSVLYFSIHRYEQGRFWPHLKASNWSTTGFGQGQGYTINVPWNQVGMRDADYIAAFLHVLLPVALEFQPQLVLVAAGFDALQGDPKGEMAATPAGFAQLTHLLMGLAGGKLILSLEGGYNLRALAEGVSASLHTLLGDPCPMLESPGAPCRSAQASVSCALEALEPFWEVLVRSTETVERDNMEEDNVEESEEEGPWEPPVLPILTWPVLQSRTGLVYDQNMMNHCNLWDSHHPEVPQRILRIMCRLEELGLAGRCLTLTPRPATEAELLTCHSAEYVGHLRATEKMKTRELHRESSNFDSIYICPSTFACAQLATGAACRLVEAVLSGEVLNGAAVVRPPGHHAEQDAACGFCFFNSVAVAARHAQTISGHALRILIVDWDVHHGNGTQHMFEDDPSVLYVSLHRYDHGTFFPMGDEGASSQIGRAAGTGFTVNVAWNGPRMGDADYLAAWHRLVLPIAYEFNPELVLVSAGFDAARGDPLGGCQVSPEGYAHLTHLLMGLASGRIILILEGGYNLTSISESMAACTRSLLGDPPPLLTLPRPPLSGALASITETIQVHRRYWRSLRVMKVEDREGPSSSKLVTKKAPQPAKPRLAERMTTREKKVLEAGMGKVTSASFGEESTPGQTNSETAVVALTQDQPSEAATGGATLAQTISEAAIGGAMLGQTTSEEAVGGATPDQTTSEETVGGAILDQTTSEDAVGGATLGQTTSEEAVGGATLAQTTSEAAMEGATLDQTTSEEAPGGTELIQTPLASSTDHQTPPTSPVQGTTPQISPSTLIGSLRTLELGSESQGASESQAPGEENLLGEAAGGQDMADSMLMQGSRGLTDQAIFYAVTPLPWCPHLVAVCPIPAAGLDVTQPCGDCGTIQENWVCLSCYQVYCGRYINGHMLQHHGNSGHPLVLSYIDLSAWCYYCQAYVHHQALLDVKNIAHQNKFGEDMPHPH

[3] = molecular target: Histone deacetylase 1 (Homo sapiens, UniProt Q13547); assay: Inhibition of recombinant human HDAC1 expressed in baculovirus infected High5 insect cells using Ac-Lys-Tyr-Lys(epsilon-acetyl)-AMC as substrate after 24 hrs by fluorescence assay
Sequence of Histone deacetylase 1 (Q13547 whole entry): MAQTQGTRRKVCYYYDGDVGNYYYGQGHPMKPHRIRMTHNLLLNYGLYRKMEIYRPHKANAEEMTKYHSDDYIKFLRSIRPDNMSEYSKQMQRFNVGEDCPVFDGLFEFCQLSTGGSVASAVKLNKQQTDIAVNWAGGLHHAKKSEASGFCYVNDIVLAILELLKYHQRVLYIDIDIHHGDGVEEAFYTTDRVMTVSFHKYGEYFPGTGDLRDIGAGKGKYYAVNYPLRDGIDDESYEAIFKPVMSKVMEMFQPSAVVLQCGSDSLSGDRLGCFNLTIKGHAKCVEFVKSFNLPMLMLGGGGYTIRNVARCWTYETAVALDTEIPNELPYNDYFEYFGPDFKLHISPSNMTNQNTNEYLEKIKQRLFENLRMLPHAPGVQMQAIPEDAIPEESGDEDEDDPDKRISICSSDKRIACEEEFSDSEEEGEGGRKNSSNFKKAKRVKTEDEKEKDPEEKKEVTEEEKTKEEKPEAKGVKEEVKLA

[4] = system: A549; assay: Antiproliferative activity against human A549 cells after 72 hrs by SRB assay; type: functional, cell-based; details: A549, 72 h
[5] = system: HCT-116; assay: Antiproliferative activity against human HCT116 cells after 72 hrs by SRB assay; type: functional, cell-based; details: HCT-116, 72 h
[6] = Stability of the compound in PBS at pH 7.4 at 50 uM by HPLC analysis; type: physicochemical; details: buffer, pH 7.4, 50 µM
[7] = Stability of the compound in human plasma at 50 uM by HPLC analysis; type: ADME, cell-free
[8] = molecular target: T2, Protein deacetylase HDAC6 (Homo sapiens) (UniProt Q9UBN7); assay: Inhibition of HDAC6 in human A549 cells assessed as increase in acetylated tubulin levels at 0.3 to 30 uM after 24 hrs by Western blot analysis; type: cell-based
T2 sequence (whole entry): T1 sequence (Q9UBN7 whole entry)

[9] = Stability of the compound in PBS at pH 6 at 50 uM by HPLC analysis; type: physicochemical; details: buffer, pH 6, 50 µM
[10] = molecular target: T2, Protein deacetylase HDAC6 (Homo sapiens); assay: Inhibition of HDAC6 in human HCT116 cells assessed as increase in acetylated tubulin levels at 0.3 to 30 uM after 24 hrs by Western blot analysis; type: cell-based
[11] = Stability of the compound in mouse plasma at 50 uM by HPLC analysis; type: ADME, cell-free
[12] = Half life in human plasma at 50 uM by HPLC analysis; type: ADME, cell-free
[13] = molecular target: T2, Protein deacetylase HDAC6 (Homo sapiens); assay: Inhibition of HDAC6 in human A549 cells assessed as increase in acetylated tubulin levels at 1 to 10 uM after 24 hrs by Western blot analysis; type: cell-based
[14] = Half life in PBS at pH 7.4 at 50 uM by HPLC analysis; type: physicochemical
[15] = molecular target: T2, Protein deacetylase HDAC6 (Homo sapiens); assay: Inhibition of HDAC6 in human HCT116 cells assessed as increase in acetylated tubulin levels at 1 to 10 uM after 24 hrs by Western blot analysis; type: cell-based
[16] = Half life in mouse plasma at 50 uM by HPLC analysis; type: ADME, cell-free
[17] = molecular target: T2, Protein deacetylase HDAC6 (Homo sapiens); assay: Inhibition of HDAC6 in human A549 cells assessed as increase in acetylated tubulin levels at 0.03 to 3 uM after 24 hrs by Western blot analysis; type: cell-based
[18] = molecular target: T2, Protein deacetylase HDAC6 (Homo sapiens); assay: Inhibition of HDAC6 in human HCT116 cells assessed as increase in acetylated tubulin levels at 0.03 to 3 uM after 24 hrs by Western blot analysis; type: cell-based

Sequence of Histone deacetylase 3 (O15379 whole entry): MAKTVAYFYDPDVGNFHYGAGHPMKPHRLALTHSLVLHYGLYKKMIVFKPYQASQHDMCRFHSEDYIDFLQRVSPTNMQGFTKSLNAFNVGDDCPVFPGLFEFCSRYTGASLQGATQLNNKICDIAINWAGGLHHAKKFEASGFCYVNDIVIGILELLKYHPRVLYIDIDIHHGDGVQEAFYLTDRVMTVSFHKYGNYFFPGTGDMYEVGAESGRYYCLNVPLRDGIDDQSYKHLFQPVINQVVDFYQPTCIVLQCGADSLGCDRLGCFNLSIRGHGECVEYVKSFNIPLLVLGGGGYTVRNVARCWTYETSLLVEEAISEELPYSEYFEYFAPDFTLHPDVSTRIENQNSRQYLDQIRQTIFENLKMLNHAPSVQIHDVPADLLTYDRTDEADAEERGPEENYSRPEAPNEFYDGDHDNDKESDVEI

Compound | IC50 [1] | IC50 [2] | IC50 [3] | IC50 [4] | IC50 [5] | also measured
CCc1c2c(nc3ccc(OC(=O)N4CCC(N5CCCCC5)CC4)cc13)-c1cc3c(c(=O)n1C2)COC(=O)[C@]3(O)CC [IRINOTECAN] |  |  |  | 1880 nM | 1630 nM | 
CCc1c2c(nc3ccc(OC(=O)N4CCN(C(=O)CCCCCCC(=O)NO)CC4)cc13)-c1cc3c(c(=O)n1C2)COC(=O)[C@]3(O)CC | 9320 nM | 12200 nM | 5570 nM | 7230 nM | 6240 nM | Stability [6]: Stable; Stability [7]: Stable; inhibition [8]: Active; Stability [9]: Stable; inhibition [10]: Active; Stability [11]: Unstable
CCc1c2c(nc3ccc(O)cc13)-c1cc3c(c(=O)n1C2)COC(=O)[C@]3(O)CC [7-ETHYL-10-HYDROXYCAMPTOTHECIN] |  |  |  | 1.62 to 7.33 nM | 0.78 nM | 
CCc1c2c(nc3ccc(OC(=O)N4CCN(C(=O)CCCCCC(=O)NO)CC4)cc13)-c1cc3c(c(=O)n1C2)COC(=O)[C@]3(O)CC | 12000 nM |  | 13600 nM |  |  | 
CCc1c2c(nc3ccc(OC(=O)N4CCN(C(=O)CCCCCCCC(=O)NO)CC4)cc13)-c1cc3c(c(=O)n1C2)COC(=O)[C@]3(O)CC | 18800 nM | 9040 nM | 19700 nM |  |  | 
CCc1c2c(nc3ccc(OC(=O)N4CCN(C(=O)CCCCCCCCCCC(=O)NO)CC4)cc13)-c1cc3c(c(=O)n1C2)COC(=O)[C@]3(O)CC | 27300 nM | 3570 nM | 11000 nM |  |  | 
CCc1c2c(nc3ccc(OC(=O)N4CCN(C(=O)CCCCCCCCCC(=O)NO)CC4)cc13)-c1cc3c(c(=O)n1C2)COC(=O)[C@]3(O)CC | 24600 nM | 4700 nM | 17400 nM | 6730 nM | 3220 nM | inhibition [17]: Active; inhibition [18]: Active
CCc1c2c(nc3ccc(OC(=O)N4CCN(C(=O)CCCCCCCCC(=O)NO)CC4)cc13)-c1cc3c(c(=O)n1C2)COC(=O)[C@]3(O)CC | 25400 nM | 7020 nM | 30100 nM |  |  | 
CCc1c2c(nc3ccc(O)cc13)-c1cc3c(c(=O)n1C2)COC(=O)[C@@]3(CC)OC(=O)CNC(=O)CCCCCCC(=O)O | 34900 nM | 8660 nM | 27700 nM | 111 nM | 23.2 nM | inhibition [13]: Active; inhibition [15]: Active

More lines, main results first:

IC50 [1] | IC50 [2] | IC50 [3] | IC50 [4] | IC50 [5] | Compound | also measured
5330 nM | 610 nM | 6180 nM |  |  | CCc1c2c(nc3ccc(O)cc13)-c1cc3c(c(=O)n1C2)COC(=O)[C@@]3(CC)OC(=O)CCCCCCCCCC(=O)NO | 
780 nM | 320 nM | 710 nM |  |  | CCc1c2c(nc3ccc(O)cc13)-c1cc3c(c(=O)n1C2)COC(=O)[C@@]3(CC)OC(=O)CCCCCCCCC(=O)NO | 
1600 nM | 860 nM | 1960 nM | 138 nM | 30.5 nM | CCc1c2c(nc3ccc(O)cc13)-c1cc3c(c(=O)n1C2)COC(=O)[C@@]3(CC)OC(=O)CNC(=O)CCCCCCC(=O)NO | half-life at 50 µM [12]: 6 h; inhibition [13]: inactive; half-life at 50 µM [14]: 5 h; Stability [9]: Unstable; inhibition [15]: inactive; half-life at 50 µM [16]: 1 h
100 nM | 220 nM | 110 nM | 245 nM | 46.2 nM | CCc1c2c(nc3ccc(O)cc13)-c1cc3c(c(=O)n1C2)COC(=O)[C@@]3(CC)OC(=O)CCCCCC(=O)NO | inhibition [13]: inactive; inhibition [15]: inactive
11800 nM | 1070 nM | 12600 nM |  |  | CCc1c2c(nc3ccc(O)cc13)-c1cc3c(c(=O)n1C2)COC(=O)[C@@]3(CC)OC(=O)CCCCCCCCCCC(=O)NO | 
990 nM | 210 nM | 970 nM |  |  | CCc1c2c(nc3ccc(O)cc13)-c1cc3c(c(=O)n1C2)COC(=O)[C@@]3(CC)OC(=O)CCCCCCCC(=O)NO | 
100 nM | 250 nM | 90 nM | 612 nM | 88 nM | CCc1c2c(nc3ccc(O)cc13)-c1cc3c(c(=O)n1C2)COC(=O)[C@@]3(CC)OC(=O)CCCCCCC(=O)NO | inhibition [13]: inactive; Stability [6]: Stable; Stability [7]: Stable; Stability [9]: Stable; inhibition [15]: inactive; Stability [11]: Unstable
37200 nM | 6940 nM | 27100 nM | 129 nM | 29 nM | CCc1c2c(nc3ccc(O)cc13)-c1cc3c(c(=O)n1C2)COC(=O)[C@@]3(CC)OC(=O)CCCCCCC(=O)O | inhibition [13]: Active; inhibition [15]: Active

Source: ChEMBL document CHEMBL4229532, “A series of camptothecin prodrugs exhibit HDAC inhibition activity” (Bioorg Med Chem, 2018)
